The values that follow come from US20220306630A1, “AGONISTS OF ROR GAMMAt” (BRISTOL-MYERS SQUIBB COMPANY, priority 2019, published 2022).

Structures are written as SMILES. pEC50: −log10 of the molar value.

This test deals with T1, RORgT (Homo sapiens, UniProt P51449).
T1 construct: Gal4 (fusion partner); expressed in transfected cells; host or cells: engineered Jurkat cells (Jurkat pEx/Gal/hRORγ CLBD/HYG pG5luc/blast)
T1 sequence (P51449 267-516): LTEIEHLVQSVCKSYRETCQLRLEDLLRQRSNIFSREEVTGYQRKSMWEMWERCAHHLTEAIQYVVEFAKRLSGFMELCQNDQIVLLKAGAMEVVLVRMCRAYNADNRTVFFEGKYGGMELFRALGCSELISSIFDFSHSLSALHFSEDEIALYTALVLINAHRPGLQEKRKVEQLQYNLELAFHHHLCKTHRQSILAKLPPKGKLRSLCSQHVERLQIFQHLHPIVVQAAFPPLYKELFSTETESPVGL
In words: RORgT Gal4 Luciferase Reporter Gene Assay. The following applies: engineered Jurkat cells overexpressing RORgT (LBD or full length) with Gal4 Luc reporter; 18 hours at 37° C.; 40 μM to 0.67 nM; read-out: RORg_GAL4 EC50. The class given is cell-based. An outline of the steps:
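Cells exposed to compound 18 hours at 37° C, then lysed for luciferase luminescence. Inhibition of constitutive activity expressed as percent reduction of signal window relative to a control compound.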
For orientation: Reporter assays use an easily measured gene product as a stand-in for the process of interest.

Broadly, the pEC50 is the EC50 on a negative log10 scale, so that one unit is a factor of ten. `COc1ccc(Oc2c(Cl)ccc(C(=O)NCC3CCCC(O)C3)c2Cl)cc1C(C)C` (centres unmarked) [Example 225]: the pEC50 was 6.04. Then `COc1ncc(Oc2c(Cl)ccc(C(=O)NC(C)c3ccc(S(C)(=O)=O)cc3)c2Cl)cc1C(C)C` (centres unmarked) [Example 143], with 7.94; and `COc1ccc(Oc2c(Cl)cc(NC(=O)CCn3ccc(S(C)(=O)=O)n3)cc2Cl)cc1C(C)C` [Example 252], with 6.58.

Take `COc1ccc(Oc2c(Cl)cc(NC(=O)Cc3cncc(Cl)n3)cc2Cl)cc1C(C)C` [Example 239]: the pEC50 was 6.77. In the case of `COc1ccc(Oc2c(Cl)cc(NC(=O)CCc3c(C)n[nH]c3C)cc2Cl)cc1C(C)C` [Example 249] it was 5.79; in that of `CC(C)c1cc(F)cc(Oc2c(Cl)ccc(C(=O)NCc3cnn(S(C)(=O)=O)c3)c2Cl)c1` [Example 128], 6.86. Then `COc1ccc(Oc2c(Cl)cc(NC(=O)C[C@H]3CCCN(S(=O)(=O)C(C)C)C3)cc2Cl)cc1C(C)C` [Example 321], with 6.83; and `COc1ccc(Oc2c(Cl)cc(NC(=O)CN3CCC(NS(C)(=O)=O)CC3)cc2Cl)cc1C(C)C` [Example 169], with 7.03. Then `CC(C)c1cc(F)cc(Oc2c(Cl)ccc(NC(=O)CC3CCN(S(C)(=O)=O)CC3)c2Cl)c1` [Example 130], with 8.26. Take `CCS(=O)(=O)N1CCC(CC(=O)Nc2cc(Cl)c(Oc3cnc(OC)c(C(C)C)c3)c(Cl)c2)CC1` [Example 120]: the pEC50 is 7.43. As for `COc1ccc(Oc2c(Cl)ccc(C(=O)N3CCC(O)CC3)c2Cl)cc1C(C)C` [Example 189], the pEC50 was 7.40. Turning to `COc1ccc(Oc2c(Cl)ccc(C(=O)NCc3ccccn3)c2Cl)cc1C(C)C` [Example 194], the pEC50 is 5.19. With `COc1ccc(Oc2c(Cl)ccc(C(=O)Nc3ccccc3CC#N)c2Cl)cc1C(C)C` [Example 215], the pEC50 was 7.43. Take `COc1ccc(Oc2c(Cl)cc(NC(=O)OCCS(C)(=O)=O)cc2Cl)cc1C(C)C` [Example 1, 2-(methylsulfonyl)ethyl (3,5-dichloro-4-(3-isopropyl-4-methoxyphenoxy)phenyl)carbamate]: the pEC50 is 6.08. In the case of `CCc1cc(Oc2c(Cl)cc(NC(=O)Cc3cccnc3)cc2Cl)ccc1OC` [Example 310] it was 6.53. Then `COc1ccc(Oc2c(Cl)ccc(CNS(=O)(=O)C3CCN(S(N)(=O)=O)CC3)c2Cl)cc1C(C)C` [Example 98], with 7.70; and `COC(=O)CCC(=O)Nc1cc(Cl)c(Oc2ccc(OC)c(C(C)C)c2)c(Cl)c1` [Example 295], with 6.51; and `COc1ccc(Oc2c(Cl)ccc(C(=O)N(C)Cc3ccc(S(N)(=O)=O)cc3)c2Cl)cc1C(C)C` [Example 110], with 7.41. In the case of `COc1ccc(Oc2c(Cl)cc(NC(=O)Cc3ccc(C)nc3)cc2Cl)cc1C(C)C` [Example 344] it was 7.12. On to `CC1(c2cc(F)cc(Oc3c(Cl)ccc(C(=O)NCC4CCN(S(C)(=O)=O)CC4)c3Cl)c2)CC1` [Example 52, 2,4-dichloro-3-(3-fluoro-5-(1-methylcyclopropyl)phenoxy)-N-((1-(methylsulfonyl)piperidin-4-yl)methyl)benzamide], for which the pEC50 was 7.55. Then `COc1ncc(Oc2c(Cl)ccc(C(=O)NCc3ccc(S(N)(=O)=O)cc3)c2Cl)cc1C(C)C` [Example 117], with 8.22; and `COc1ccc(Oc2c(Cl)cc(NC(=O)Cc3ccc(S(C)(=O)=O)cc3)cc2Cl)cc1C(C)C` [Example 38, N-(3,5-dichloro-4-(3-isopropyl-4-methoxyphenoxy)phenyl)-2-(4-(methylsulfonyl)phenyl)acetamide], with 7.52; and `CC1(c2cc(F)cc(Oc3c(Cl)cc(NC(=O)Cc4cccc(S(C)(=O)=O)c4)cc3Cl)c2)CC1` [Example 273], with 8.96.

For the compound `COc1ncc(Oc2c(Cl)ccc(C(=O)NCc3ccc(S(N)(=O)=O)cc3)c2Cl)cc1C(C)(C)F` [Example 154], the pEC50 is 8.18. For the compound `COc1ncc(Oc2c(Cl)cc(NC(=O)CN3CCN(S(C)(=O)=O)CC3)cc2Cl)cc1C(C)C` [Example 17, N-(3,5-dichloro-4-((5-isopropyl-6-methoxypyridin-3-yl)oxy)phenyl)-2-(4-(methylsulfonyl)piperazin-1-yl)acetamide], the pEC50 was 8.28. Turning to `COc1ccc(Oc2c(Cl)cc(NC(=O)Cn3ccnc3)cc2Cl)cc1C(C)C` [Example 302], the pEC50 is 6.73.

On to `COc1ccc(Oc2c(Cl)ccc(CNC(=O)CCC3CCN(S(C)(=O)=O)CC3)c2Cl)cc1C(C)C` [Example 224], for which the negative-log EC50 (pEC50) is 6.14. For `COc1ncc(Oc2c(Cl)ccc(CNC(=O)c3ccc(S(N)(=O)=O)cc3)c2Cl)cc1C(C)C` [Example 146], the pEC50 was 7.55.

Take `COc1ccc(Oc2c(Cl)cc(NC(=O)CN3CC[C@H](NS(=O)(=O)C4CC4)C3)cc2Cl)cc1C(C)C` [Example 170]: the pEC50 is 6.43. In the case of `COc1ccc(Oc2c(Cl)ccc(C(=O)n3nc(C)cc3CN)c2Cl)cc1C(C)C` [Example 181] it was 6.67; in that of `COc1ccc(Oc2c(F)cc(NC(=O)Cc3cccnc3)cc2F)cc1CC(C)C` [Example 312], 5.84. As for `COc1ccc(Oc2c(Cl)ccc(C(=O)N3CCCCC3)c2Cl)cc1C(C)C` [Example 184], the pEC50 was 6.61. Turning to `COc1ccc(Oc2c(Cl)ccc(C(=O)NC3CCC(O)CC3)c2Cl)cc1C(C)C` (centres unmarked) [Example 197], the pEC50 is 6.07. For `COc1ccc(Oc2c(Cl)cc(N3CC(CNC(=O)CS(C)(=O)=O)OC3=O)cc2Cl)cc1C(C)C` (centres unmarked) [Example 253], the pEC50 is 6.32. Then `COc1ccc(Oc2c(Cl)ccc(C(=O)NCc3ccc(S(=O)(=O)N(C)C)nc3)c2Cl)cc1C(C)C` [Example 99], with 6.82; and `COc1ccc(Oc2c(Cl)cc(NC(=O)C(O)c3cccnc3)cc2Cl)cc1C(C)C` (centres unmarked) [Example 247], with 6.94. On to `COc1ccc(Oc2c(Cl)ccc(C(=O)N3CCc4cc(N)ccc4C3)c2Cl)cc1C(C)C` [Example 108], for which the pEC50 was 6.12.

For the compound `COc1ccc(Oc2c(Cl)ccc(NC(=O)Cc3ccc(S(N)(=O)=O)cc3)c2Cl)cc1C(C)C` [Example 61], the pEC50 was 7.34. Then `CC(C)c1cc(F)cc(Oc2c(Cl)ccc(NC(=O)Cc3ccc(S(C)(=O)=O)cc3)c2Cl)c1` [Example 75], with 7.48. In the case of `COc1ccc(Oc2c(Cl)cc(NC(=O)Cc3cncc(C(N)=O)c3)cc2Cl)cc1C(C)C` [Example 6, 5-(2-((3,5-dichloro-4-(3-isopropyl-4-methoxyphenoxy)phenyl)amino)-2-oxoethyl)nicotinamide] it was 6.27; in that of `COc1ccc(Oc2c(Cl)ccc(C(=O)Nc3cccnc3)c2Cl)cc1C(C)C` [Example 202], 5.35; in that of `COc1ccc(Oc2c(Cl)cc(NC(=O)Cc3ccc(S(C)(=O)=O)nc3)cc2Cl)cc1C(C)C` [Example 3, N-(3,5-dichloro-4-(3-isopropyl-4-methoxyphenoxy)phenyl)-2-(6-(methylsulfonyl) Pyridin-3-yl)acetamide], 7.27.

On to `CCS(=O)(=O)NC1CCN(CC(=O)Nc2cc(Cl)c(Oc3ccc(OC)c(C(C)C)c3)c(Cl)c2)CC1` [Example 173], for which the negative-log EC50 (pEC50) is 6.58. As to `COc1ccc(Oc2c(F)cc(NC(=O)Cc3cccnc3)cc2F)cc1C1CC1` [Example 39, N-(4-(3-cyclopropyl-4-methoxyphenoxy)-3,5-difluorophenyl)-2-(pyridin-3-yl)acetamide], the pEC50 is 5.50.
